Test results: patent EP0637247B1, “TREATMENT OF HERPESVIRUS INFECTION” (priority 1992, dated 1993)
Read-outs that look alike come from different tables or passages of the source. Where a SMILES comes first, the peptide text is derived from it. [ ]: non-standard residue; d: D form.

Experiments:
HSV-1 F = format: cell-based; conditions: plaque reduction, HSV-1 F on Vero cell monolayers, peptide pretreatment 25 hours, replication 2 to 3 days
Method: Selected compounds were first formulated as 10 mM stocks in water for in vitro and cell culture procedures. The stocks are then diluted into buffers used for specific assays, or into cell culture media. For animal studies peptides are diluted into phosphate buffer saline.
Results of the plaque reduction assay performed with various peptides, expressed in terms of IC50 are tabulated below: […]

HSV-1 strain F = conditions: mice, foot-pad injections in PBS, one week pretreatment then three times weekly; particularly at the doses of 5 and 50µg/mouse
Method: After pretreatment, the left footpad was inflamed by injecting about 5 µL of 1M NaCl. After about 6 hours, the same footpad was abraded and a drop of HSV-1 strain F (2 x 10^3 pfu/ml) was then added deposited on the inflamed footpad.

Row | SMILES | IC50 (HSV-1 F; read-out: IC50) [µM] | further results
1 | CC(=O)N[C@H](CCCNC(=N)N)C(=O)N[C@H](CCCCN)C(=O)N[C@H](CCCCN)C(=O)N[C@H](CCCNC(=N)N)C(=O)N[C@H](CCCNC(=N)N)C(=O)N[C@H](CCC(N)=O)C(=O)N[C@H](CCCNC(=N)N)C(=O)N[C@H](CCCNC(=N)N)C(N)=O (Ac-[dR][dK][dK][dR][dR][dQ][dR][dR]-NH2) | > 20 | 
2 | CC(=O)N[C@H](CCCNC(=N)N)C(=O)N[C@H](CCCNC(=N)N)C(=O)N[C@H](CCCNC(=N)N)C(=O)N[C@H](CCCNC(=N)N)C(=O)N[C@H](CCCNC(=N)N)C(=O)N[C@H](CCCNC(=N)N)C(=O)N[C@H](CCCNC(=N)N)C(N)=O [acetyl-[D-Arg]7-NH2, acetyl-[D-(Arg)7]-NH2] |  | IC50 (HSV-1 F): slight
3 | CC[C@H](C)[C@H](NC(=O)[C@H](C)NC(=O)[C@@H](NC(=O)[C@H](Cc1ccccc1)NC(C)=O)[C@@H](C)CC)C(=O)N[C@@H](C)C(=O)N[C@H](CCCNC(=N)N)C(=O)N[C@H](CCCCN)C(=O)N[C@H](CCCCN)C(=O)N[C@H](CCCNC(=N)N)C(=O)N[C@H](CCCNC(=N)N)C(=O)N[C@H](CCC(N)=O)C(=O)N[C@H](CCCNC(=N)N)C(=O)N[C@H](CCCNC(=N)N)C(N)=O (Ac-FIAIA[dR][dK][dK][dR][dR][dQ][dR][dR]-NH2) | 10 | 
4 | CC(=O)N[C@H](CCCNC(=N)N)C(=O)N[C@H](CCCNC(=N)N)C(=O)N[C@H](CCCNC(=N)N)C(=O)N[C@H](CCCNC(=N)N)C(=O)N[C@H](CCCNC(=N)N)C(=O)N[C@H](CCCNC(=N)N)C(=O)N[C@H](CCCNC(=N)N)C(=O)N[C@H](CCCNC(=N)N)C(=O)N[C@H](CCCNC(=N)N)C(N)=O [acetyl-[D-Arg]9-NH2] |  | anti-herpetic effect in vivo (Figure 3) (HSV-1 strain F): anti-herpetic result
